# From PubChem BioAssay AID2060483 (Molecular Pharmacology Branch, DTP, NCI, 2025)
# System: K24384-001-R-PDC complex spheroids, viability
# Experiment: Anticancer human tumor K24384-001-R-PDC patient-derived pancreatic adenocarcinoma cell line growth inhibition [GQUAD]
# Conditions: for IC50: curve of first compound; for viability, T/C: stronger effect = lower value
# Method in brief: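 Multi-cell-type spheroids of tumor cells with HUVEC and mesenchymal stem cells, treated with drug combinations. Concentrations descend in half-log steps from near clinical Cmax, or from 10 microM where Cmax is unknown; viability read-out.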
# [1] = second compound 0.0316 µM, first compound 0.0316 µM
# [2] = second compound 0.0316 µM, first compound 0.1 µM
# [3] = second compound 0.0316 µM, first compound 0.316 µM
# [4] = second compound 0.0316 µM, first compound 1 µM
# [5] = second compound 0.0316 µM, first compound 3.16 µM
# [6] = second compound 0.0316 µM, first compound 10 µM
# [7] = second compound 0.1 µM, first compound 0.0316 µM
# [8] = second compound 0.1 µM, first compound 0.1 µM
# [9] = second compound 0.1 µM, first compound 0.316 µM
# [10] = second compound 0.1 µM, first compound 1 µM
# [11] = second compound 0.1 µM, first compound 3.16 µM
# [12] = second compound 0.1 µM, first compound 10 µM
# [13] = second compound 0.316 µM, first compound 0.0316 µM
# [14] = second compound 0.316 µM, first compound 0.1 µM
# [15] = second compound 0.316 µM, first compound 0.316 µM
# [16] = second compound 0.316 µM, first compound 1 µM
# [17] = second compound 0.316 µM, first compound 3.16 µM
# [18] = second compound 0.316 µM, first compound 10 µM
# [19] = second compound 1 µM, first compound 0.0316 µM
# [20] = second compound 1 µM, first compound 0.1 µM
# [21] = second compound 1 µM, first compound 0.316 µM
# [22] = second compound 1 µM, first compound 1 µM
# [23] = second compound 1 µM, first compound 3.16 µM
# [24] = second compound 1 µM, first compound 10 µM
# [25] = second compound 3.16 µM, first compound 0.0316 µM
# [26] = second compound 3.16 µM, first compound 0.1 µM
# [27] = second compound 3.16 µM, first compound 0.316 µM
# [28] = second compound 3.16 µM, first compound 1 µM
# [29] = second compound 3.16 µM, first compound 3.16 µM
# [30] = second compound 3.16 µM, first compound 10 µM
# [31] = second compound 10 µM, first compound 0.0316 µM
# [32] = second compound 10 µM, first compound 0.1 µM
# [33] = second compound 10 µM, first compound 0.316 µM
# [34] = second compound 10 µM, first compound 1 µM
# [35] = second compound 10 µM, first compound 3.16 µM
# [36] = second compound 10 µM, first compound 10 µM
# 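Also: spheroids exposed to compounds for seven days.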
compound,measurement,setting,value
CC(C)(O)C1CCC(Nc2ccc3ncc(-c4cccc(C(F)(F)F)c4)n3n2)CC1 (stereo unspecified) + Cc1cnc(CNC(=O)c2c(=O)c3ccc(N4CCCN(C)CC4)nc3n3c2sc2ccccc23)cn1,IC50,second compound 0.0316 µM,1720 nM
same,IC50,second compound 0.1 µM,1680 nM
same,IC50,second compound 0.316 µM,31.6 nM
same,IC50,second compound 1 µM,< 31.6 nM
same,IC50,second compound 3.16 µM,< 31.6 nM
same,IC50,second compound 10 µM,< 31.6 nM
same,"viability, T/C",[1],89%
same,"viability, T/C",[2],85.6%
same,"viability, T/C",[3],90.3%
same,"viability, T/C",[4],69.2%
same,"viability, T/C",[5],26.6%
same,"viability, T/C",[6],30.2%
same,"viability, T/C",[7],55.6%
same,"viability, T/C",[8],75.8%
same,"viability, T/C",[9],72.7%
same,"viability, T/C",[10],76.4%
same,"viability, T/C",[11],22.4%
same,"viability, T/C",[12],28.3%
same,"viability, T/C",[13],42.4%
same,"viability, T/C",[14],49.8%
same,"viability, T/C",[15],46%
same,"viability, T/C",[16],60.9%
same,"viability, T/C",[17],28.8%
same,"viability, T/C",[18],28.1%
same,"viability, T/C",[19],37.1%
same,"viability, T/C",[20],53%
same,"viability, T/C",[21],36.4%
same,"viability, T/C",[22],42.4%
same,"viability, T/C",[23],22.3%
same,"viability, T/C",[24],15.1%
same,"viability, T/C",[25],30.4%
same,"viability, T/C",[26],40.3%
same,"viability, T/C",[27],36.9%
same,"viability, T/C",[28],37.7%
same,"viability, T/C",[29],0.14%
same,"viability, T/C",[30],0.16%
same,"viability, T/C",[31],12.8%
same,"viability, T/C",[32],12.9%
same,"viability, T/C",[33],5.01%
same,"viability, T/C",[34],0.25%
same,"viability, T/C",[35],0.24%
same,"viability, T/C",[36],0.23%
CC(C)n1c(=O)n(C)c2cnc3cc(F)c(-c4ccc(OCCCN5CCCCC5)nc4)cc3c21 + Cc1cnc(CNC(=O)c2c(=O)c3ccc(N4CCCN(C)CC4)nc3n3c2sc2ccccc23)cn1,IC50,second compound 0.0316 µM,> 10000 nM
same,IC50,second compound 0.1 µM,> 10000 nM
same,IC50,second compound 0.316 µM,> 10000 nM
same,IC50,second compound 1 µM,1880 nM
same,IC50,second compound 3.16 µM,< 31.6 nM
same,IC50,second compound 10 µM,< 31.6 nM
same,"viability, T/C",[1],68.1%
same,"viability, T/C",[2],77%
same,"viability, T/C",[3],76.9%
same,"viability, T/C",[4],92.9%
same,"viability, T/C",[5],99.9%
same,"viability, T/C",[6],87.7%
same,"viability, T/C",[7],70.1%
same,"viability, T/C",[8],84.2%
same,"viability, T/C",[9],67.1%
same,"viability, T/C",[10],80.6%
same,"viability, T/C",[11],83.5%
same,"viability, T/C",[12],69.3%
same,"viability, T/C",[13],60.3%
same,"viability, T/C",[14],81.4%
same,"viability, T/C",[15],55%
same,"viability, T/C",[16],62%
same,"viability, T/C",[17],71.2%
same,"viability, T/C",[18],52%
same,"viability, T/C",[19],48.1%
same,"viability, T/C",[20],52%
same,"viability, T/C",[21],57.7%
same,"viability, T/C",[22],51.4%
same,"viability, T/C",[23],54.6%
same,"viability, T/C",[24],41.5%
same,"viability, T/C",[25],44.4%
same,"viability, T/C",[26],46%
same,"viability, T/C",[27],46.2%
same,"viability, T/C",[28],58.4%
same,"viability, T/C",[29],42%
same,"viability, T/C",[30],49.7%
same,"viability, T/C",[31],39%
same,"viability, T/C",[32],19.4%
same,"viability, T/C",[33],39.9%
same,"viability, T/C",[34],46.8%
same,"viability, T/C",[35],32.8%
same,"viability, T/C",[36],0.33%
O=c1[nH]cc(F)c(=O)[nH]1 + Cc1cnc(CNC(=O)c2c(=O)c3ccc(N4CCCN(C)CC4)nc3n3c2sc2ccccc23)cn1,IC50,second compound 0.0316 µM,877 nM
same,IC50,second compound 0.1 µM,> 10000 nM
same,IC50,second compound 0.316 µM,< 31.6 nM
same,IC50,second compound 1 µM,< 31.6 nM
same,IC50,second compound 3.16 µM,< 31.6 nM
same,IC50,second compound 10 µM,< 31.6 nM
same,"viability, T/C",[1],78.1%
same,"viability, T/C",[2],90.8%
same,"viability, T/C",[3],78.9%
same,"viability, T/C",[4],45.7%
same,"viability, T/C",[5],53.1%
same,"viability, T/C",[6],40%
same,"viability, T/C",[7],55.8%
same,"viability, T/C",[8],68.3%
same,"viability, T/C",[9],69.5%
same,"viability, T/C",[10],50.9%
same,"viability, T/C",[11],70.9%
same,"viability, T/C",[12],50.4%
same,"viability, T/C",[13],45.7%
same,"viability, T/C",[14],47.3%
same,"viability, T/C",[15],51.7%
same,"viability, T/C",[16],41.8%
same,"viability, T/C",[17],48.2%
same,"viability, T/C",[18],47%
same,"viability, T/C",[19],35.9%
same,"viability, T/C",[20],46.4%
same,"viability, T/C",[21],41.9%
same,"viability, T/C",[22],48.6%
same,"viability, T/C",[23],53.9%
same,"viability, T/C",[24],38.2%
same,"viability, T/C",[25],33.3%
same,"viability, T/C",[26],37%
same,"viability, T/C",[27],37.1%
same,"viability, T/C",[28],49.7%
same,"viability, T/C",[29],47.1%
same,"viability, T/C",[30],34%
same,"viability, T/C",[31],28.3%
same,"viability, T/C",[32],25.2%
same,"viability, T/C",[33],30.6%
same,"viability, T/C",[34],35.4%
same,"viability, T/C",[35],19.8%
same,"viability, T/C",[36],23.1%
